Results taken from ChEMBL document CHEMBL1122736, “Replacement of the peptide-backbone amides connecting Tyr-Gly and Gly-Gly in leucine-enkephalin with ketomethylene groups: synthesis and biological activity” (J Med Chem, 1984).

Legend:
[1] = system: Mus musculus; test: Analgesic activity in mice by tail-flick test after intracerebroventricular administration at a dose of 40 ug/mouse after time duration of 8 minutes; no of mice survived / total no of mice tested-3; format: functional
[2] = system: Mus musculus; test: Analgesic activity in mice by tail-flick test after intracerebroventricular administration at a dose of 48 ug/mouse after time duration of 4 minutes; no of mice survived / total no of mice tested-3; format: functional
[3] = system: Mus musculus; test: Analgesic activity in mice by tail-flick test after intracerebroventricular administration at a dose of 48 ug/mouse after time duration of 8 minutes; no of mice survived / total no of mice tested-3; format: functional
[4] = system: Mus musculus; test: Analgesic activity in mice by tail-flick test after intracerebroventricular administration at a dose of 40 ug/mouse after time duration of 4 minutes; no of mice survived / total no of mice tested-3; format: functional
[5] = system: Mus musculus; test: Analgesic activity in mice by tail-flick test after intracerebroventricular administration at a dose of 12.2 ug/mouse after time duration of 2 minutes; no of mice survived / total no of mice tested-12; format: functional
[6] = system: Mus musculus; test: Analgesic activity in mice by tail-flick test after intracerebroventricular administration at a dose of 40 ug/mouse after time duration of 2 minutes; no of mice survived / total no of mice tested-2; format: functional
[7] = target: Opioid receptor (Rattus norvegicus); test: Concentration required to inhibit the specific binding of tritiated ligand [3H]DADL to opiate receptor by 50%
[8] = system: Mus musculus; test: Analgesic activity in mice by tail-flick test after intracerebroventricular administration at a dose of 60 ug/mouse after time duration of 4 minutes; no of mice survived / total no of mice tested-3; format: functional
[9] = system: Mus musculus; test: Analgesic activity in mice by tail-flick test after intracerebroventricular administration at a dose of 24.3 ug/mouse after time duration of 2 minutes; no of mice survived / total no of mice tested-12; format: functional
[10] = system: Mus musculus; test: Analgesic activity in mice by tail-flick test after intracerebroventricular administration at a dose of 60 ug/mouse after time duration of 2 minutes; no of mice survived / total no of mice tested-2; format: functional
[11] = system: Mus musculus; test: Analgesic activity in mice by tail-flick test after intracerebroventricular administration at a dose of 60 ug/mouse after time duration of 8 minutes; no of mice survived / total no of mice tested-3; format: functional
[12] = system: Mus musculus; test: Analgesic activity in mice by tail-flick test after intracerebroventricular administration at a dose of 48 ug/mouse after time duration of 2 minutes; no of mice survived / total no of mice tested-2; format: functional
[13] = target: Opioid receptor (Rattus norvegicus); test: Concentration required to inhibit the specific binding of tritiated ligand [3H]naloxone to opiate receptor by 50%
[14] = system: Mus musculus; test: Analgesic activity in mice by tail-flick test after intracerebroventricular administration at a dose of 240 ug/mouse after time duration of 2 minutes; no of mice survived / total no of mice tested-6; format: functional

Row | SMILES | Analgesic response [1] | Analgesic response [2] | Analgesic response [3] | Analgesic response [4] | Analgesic response [5] | Analgesic response [6] | IC50 [7] | Analgesic response [8] | Analgesic response [9] | Analgesic response [10] | Analgesic response [11] | Analgesic response [12] | IC50 [13] | Analgesic response [14]
1 | CC(C)CC(NC(=O)C(Cc1ccccc1)NC(=O)CCC(=O)CCC(=O)C(N)Cc1ccc(O)cc1)C(=O)O (centres undefined) | 0 | 1 | 0 | 1 | 2 | 1 | 33 µM | 1 | 6 | 1 | 0 | 1 | 180 µM | –
2 | CC(C)C[C@@H](NC(=O)[C@H](Cc1ccccc1)NC(=O)CNC(=O)[C@@H](C)NC(=O)[C@@H](N)Cc1ccc(O)cc1)C(=O)O [DADLE] | – | – | – | – | – | – | – | – | – | – | – | – | – | 4
